Source: ChEMBL document CHEMBL1201862, “PubChem BioAssay data set” (2004)
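All cell lines were grown in 96-well plates and treated with compound for 48 hours. GI50: concentration for 50% inhibition of growth.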 Active and inactive are the calls of the source. Cut-off read from the data, not from the text of the source: active = GI50 up to about 1.1 µM and inactive = higher.

Tests used:
Assay in all cases: NCI tumour cell line growth inhibition, 48 h
786-0 = test system: 786-0
A549 = test system: A549
ACHN = test system: ACHN
BT-549 = test system: BT-549
CAKI-1 = test system: CAKI-1
CCRF-CEM = test system: CCRF-CEM
COLO 205 = test system: COLO 205
DU-145 = test system: DU-145
EKVX = test system: EKVX
HCC 2998 = test system: HCC 2998
HCT-116 = test system: HCT-116
HCT-15 = test system: HCT-15
HL-60 = test system: HL-60
HOP-62 = test system: HOP-62
HT-29 = test system: HT-29
IGROV-1 = test system: IGROV-1
K562 = test system: K562
M14 = test system: M14
MCF7 = test system: MCF7
MOLT-4 = test system: MOLT-4
Malme-3M = test system: Malme-3M
NCI-H226 = test system: NCI-H226
NCI-H23 = test system: NCI-H23
NCI-H460 = test system: NCI-H460
NCI-H522 = test system: NCI-H522
NCI/ADR-RES = test system: NCI/ADR-RES
OVCAR-3 = test system: OVCAR-3
OVCAR-4 = test system: OVCAR-4
OVCAR-5 = test system: OVCAR-5
OVCAR-8 = test system: OVCAR-8
PC-3 = test system: PC-3
RPMI-8226 = test system: RPMI-8226
RXF 393 = test system: RXF 393
SF-268 = test system: SF-268
SF-295 = test system: SF-295
SF-539 = test system: SF-539
SK-MEL-28 = test system: SK-MEL-28
SK-MEL-2 = test system: SK-MEL-2
SK-MEL-5 = test system: SK-MEL-5
SK-OV-3 = test system: SK-OV-3
SNB-19 = test system: SNB-19
SNB-75 = test system: SNB-75
SR = test system: SR
SW-620 = test system: SW-620
TK-10 = test system: TK-10
U-251 = test system: U-251
UACC-257 = test system: UACC-257
UACC-62 = test system: UACC-62
UO-31 = test system: UO-31
A498 = test system: A498
HOP-92 = test system: HOP-92
KM12 = test system: KM12
LOX IMVI = test system: LOX IMVI
MDA-MB-435 = test system: MDA-MB-435
MDA-N = test system: MDA-N
SN12C = test system: SN12C

Which results are given for CC(C)=NN/C=N\C(C#N)=C(/N)C#N?
GI50 (786-0): > 100 µM (inactive); GI50 (A549): > 100 µM (inactive); GI50 (ACHN): > 100 µM (inactive); GI50 (BT-549): > 100 µM (inactive); GI50 (CAKI-1): > 100 µM (inactive); GI50 (CCRF-CEM): > 100 µM (inactive); GI50 (COLO 205): > 100 µM (inactive); GI50 (DU-145): > 100 µM (inactive); GI50 (EKVX): > 100 µM (inactive); GI50 (HCC 2998): 0.262 µM (active); GI50 (HCT-116): 78.9 µM (inactive); GI50 (HCT-15): > 100 µM; GI50 (HL-60): > 100 µM (inactive); GI50 (HOP-62): > 100 µM (inactive); GI50 (HT-29): > 100 µM (inactive); GI50 (IGROV-1): > 100 µM (inactive); GI50 (K562): > 100 µM (inactive); GI50 (M14): > 100 µM (inactive); GI50 (MCF7): > 100 µM (inactive); GI50 (MOLT-4): > 100 µM (inactive); GI50 (Malme-3M): 69.2 µM (inactive); GI50 (NCI-H226): > 100 µM (inactive); GI50 (NCI-H23): > 100 µM (inactive); GI50 (NCI-H460): > 100 µM (inactive); GI50 (NCI-H522): > 100 µM (inactive); GI50 (NCI/ADR-RES): > 100 µM (inactive); GI50 (OVCAR-3): > 100 µM (inactive); GI50 (OVCAR-4): > 100 µM (inactive); GI50 (OVCAR-5): > 100 µM (inactive); GI50 (OVCAR-8): > 100 µM (inactive); GI50 (PC-3): > 100 µM (inactive); GI50 (RPMI-8226): > 100 µM (inactive); GI50 (RXF 393): > 100 µM (inactive); GI50 (SF-268): > 100 µM (inactive); GI50 (SF-295): > 100 µM (inactive); GI50 (SF-539): > 100 µM (inactive); GI50 (SK-MEL-28): > 100 µM (inactive); GI50 (SK-MEL-2): > 100 µM (inactive); GI50 (SK-MEL-5): 25.8 µM (inactive); GI50 (SK-OV-3): > 100 µM (inactive); GI50 (SNB-19): > 100 µM (inactive); GI50 (SNB-75): 0.466 µM (active); GI50 (SR): > 100 µM (inactive); GI50 (SW-620): > 100 µM (inactive); GI50 (TK-10): > 100 µM (inactive); GI50 (U-251): > 100 µM (inactive); GI50 (UACC-257): > 100 µM (inactive); GI50 (UACC-62): > 100 µM (inactive); GI50 (UO-31): > 100 µM (inactive)

Which GI50 (786-0) does the source give for CCOC(=O)/C(=C\NC[C@@H](C)O)c1nc2ccccc2[nH]1 here?
Its GI50 is > 100 µM (inactive).

What about the GI50 (A498) of the same compound?
The GI50 was 55 µM (inactive).

What about the GI50 (A549) of the same compound?
Its GI50 is 62.4 µM (inactive).

What about the GI50 (ACHN) of the same compound?
Its GI50 is 32.4 µM (inactive).

And the GI50 (BT-549)?
Its GI50 is > 100 µM (inactive).

And the GI50 (CAKI-1)?
Its GI50 is > 100 µM (inactive).

What about the GI50 (COLO 205) of the same compound?
The GI50 was 69.5 µM (inactive).

What about the GI50 (DU-145) of the same compound?
Its GI50 is > 100 µM (inactive).

What about the GI50 (EKVX) of the same compound?
Its GI50 is > 100 µM (inactive).

What about the GI50 (HCC 2998) of the same compound?
Its GI50 is 37.4 µM (inactive).

What about the GI50 (HCT-116) of the same compound?
Its GI50 is > 100 µM (inactive).

What about the GI50 (HCT-15) of the same compound?
The GI50 was 73.3 µM.

What about the GI50 (HL-60) of the same compound?
The GI50 was 20.4 µM (inactive).

What about the GI50 (HOP-62) of the same compound?
Its GI50 is > 100 µM (inactive).

And the GI50 (HOP-92)?
Its GI50 is 72.9 µM (inactive).

And the GI50 (HT-29)?
The GI50 was 71.3 µM (inactive).

What about the GI50 (IGROV-1) of the same compound?
Its GI50 is 37.8 µM (inactive).

And the GI50 (KM12)?
Its GI50 is 57.4 µM (inactive).

What about the GI50 (LOX IMVI) of the same compound?
Its GI50 is 96.8 µM (inactive).

What about the GI50 (M14) of the same compound?
Its GI50 is 56 µM (inactive).

And the GI50 (MCF7)?
The GI50 was 60.8 µM (inactive).

And the GI50 (MDA-MB-435)?
The GI50 was > 100 µM (inactive).

And the GI50 (MDA-N)?
The GI50 was > 100 µM (inactive).

What about the GI50 (MOLT-4) of the same compound?
Its GI50 is 0.238 µM (active).

And the GI50 (Malme-3M)?
Its GI50 is > 100 µM (inactive).

What about the GI50 (NCI-H23) of the same compound?
The GI50 was 54.5 µM (inactive).

And the GI50 (NCI-H460)?
The GI50 was 33.3 µM (inactive).

What about the GI50 (NCI-H522) of the same compound?
The GI50 was 40.3 µM (inactive).

What about the GI50 (NCI/ADR-RES) of the same compound?
The GI50 was 44.3 µM (inactive).

And the GI50 (OVCAR-3)?
Its GI50 is 98.4 µM (inactive).

And the GI50 (OVCAR-4)?
The GI50 was 83.8 µM (inactive).

And the GI50 (OVCAR-5)?
Its GI50 is > 100 µM (inactive).

And the GI50 (OVCAR-8)?
The GI50 was 64 µM (inactive).

What about the GI50 (RPMI-8226) of the same compound?
The GI50 was 29.1 µM (inactive).

What about the GI50 (RXF 393) of the same compound?
The GI50 was > 100 µM (inactive).

And the GI50 (SF-268)?
The GI50 was 60.7 µM (inactive).

And the GI50 (SF-295)?
The GI50 was 61.1 µM (inactive).

What about the GI50 (SF-539) of the same compound?
The GI50 was > 100 µM (inactive).

What about the GI50 (SK-MEL-28) of the same compound?
The GI50 was 57.3 µM (inactive).

What about the GI50 (SK-MEL-5) of the same compound?
Its GI50 is 29.5 µM (inactive).

And the GI50 (SK-OV-3)?
The GI50 was > 100 µM (inactive).

And the GI50 (SN12C)?
The GI50 was 93.1 µM (inactive).

What about the GI50 (SNB-19) of the same compound?
The GI50 was > 100 µM (inactive).

And the GI50 (SNB-75)?
Its GI50 is > 100 µM (inactive).

What about the GI50 (SR) of the same compound?
The GI50 was 0.0473 µM (active).

And the GI50 (SW-620)?
The GI50 was > 100 µM (inactive).

What about the GI50 (TK-10) of the same compound?
Its GI50 is 54.2 µM (inactive).

And the GI50 (UACC-257)?
Its GI50 is 56 µM (inactive).

What about the GI50 (UACC-62) of the same compound?
Its GI50 is 40.9 µM (inactive).

What about the GI50 (UO-31) of the same compound?
The GI50 was 0.33 µM (active).
